Drawing on patent US4889857A, “Quinolonecarboxylic acid compounds and pharmaceutical use thereof” (Yoshitomi Pharmaceutical Industries, Ltd., priority 1987, dated 1989), this text covers MIC and LD50 for two molecules.

SMILES strings stand for the structures. ≈ marks a conversion by molar mass, not a printed value. Read-outs that look alike come from different tables or passages of the source.

The subject of one data set is Shigella sonnei EW-33. The data set can be described thus: Antibacterial activity in vitro (MIC). The format is cell-based. The note with it: EW33, inoculum 10^6 cells/ml. Here is the method:
(§1) The antibacterial activities in vitro (minimum inhibitory concentration, MIC, μg/ml) of the test compounds were measured according to the standard method of the Japanese Chemotherapy Society (Chemotherapy, Vol. 23, p.1126, 1974).
(§2) (Inoculum size: 10^6 cells/ml, Organisms with asterisk (*) were
(§3) cultivated in a 10% horse bloodadded medium.)

For data set [1], the system named is Staphylococcus epidermidis ATCC 12228. The experiment in a line: Antibacterial activity in vitro (MIC). The class given is cell-based. Here is the method: as §1, §2, §3
Data set [2] deals with Escherichia coli NIHJ JC-2. The data set can be described thus: Antibacterial activity in vitro (MIC). The format is cell-based. As for the experimental part:
as §1, §2, §3

In data set [3] the test system is Xanthomonas maltophilia IFO 12690. The data set can be described thus: Antibacterial activity in vitro (MIC). The class given is cell-based. As to conditions: Stenotrophomonas maltophilia, IFO12690; inoculum 10^6 cells/ml. Here is the method:
as §1, §2, §3

The test system of data set [4] is Staphylococcus aureus 1840. The experiment in a line: Antibacterial activity in vitro (MIC). The class given is cell-based. As for the experimental part:
as §1, §2, §3

Data set [5] concerns Proteus mirabilis IFO 3849. The experiment in a line: Antibacterial activity in vitro (MIC). As to conditions: IFO3849, inoculum 10^6 cells/ml, read-out: MIC. The format is cell-based. Here is the method: as §1, §2, §3
Data set [6] has as its system Bacillus subtilis PCT 219. The data set can be described thus: Antibacterial activity in vitro (MIC). The class given is cell-based. As for the experimental part:
as §1, §2, §3

Data set [7] relates to Proteus vulgaris IFO 3988. The experiment in a line: Antibacterial activity in vitro (MIC). The format is cell-based. As for the experimental part: as §1, §2, §3
The test system of data set [8] is Corynebacterium diphtheriae Tronto. The experiment in a line: Antibacterial activity in vitro (MIC). The class given is cell-based. Here is the method:
as §1, §2, §3

In data set [9] the test system is Streptococcus sp. IFO 3535. The experiment in a line: Antibacterial activity in vitro (MIC). The format is cell-based. As to conditions: IFO3535, inoculum 10^6 cells/ml, 10% horse blood-added medium, read-out: MIC. Here is the method:
as §1, §2, §3

Data set [10] concerns Staphylococcus aureus FDA 209P. The experiment in a line: Antibacterial activity in vitro (MIC). The format is cell-based. As to conditions: FDA209P. As for the experimental part:
as §1, §2, §3

For data set [11], the system named is Streptococcus lactis IFO 12546. The data set can be described thus: Antibacterial activity in vitro (MIC). The format is cell-based. As to conditions: Lactococcus lactis, IFO12546; inoculum 10^6 cells/ml; 10% horse blood-added medium; read-out: MIC. As for the experimental part: as §1, §2, §3
For data set [12], the system named is Serratia marcescens IFO 12648. The data set can be described thus: Antibacterial activity in vitro (MIC). The format is cell-based. Here is the method: as §1, §2, §3
For data set [13], the system named is Citrobacter freundii IFO 12681. The data set can be described thus: Antibacterial activity in vitro (MIC). The note with it: IFO12681, inoculum 10^6 cells/ml. The format is cell-based. As for the experimental part: as §1, §2, §3
For data set [14], the system named is Morganella morganii IFO 3168. The data set can be described thus: Antibacterial activity in vitro (MIC). The class given is cell-based. The note with it: IFO3168, inoculum 10^6 cells/ml, read-out: MIC. As for the experimental part: as §1, §2, §3
In data set [15] the test system is Staphylococcus aureus FDA 209P*. The experiment in a line: Antibacterial activity in vitro (MIC), horse blood medium. The class given is cell-based. The note with it: FDA209P. As for the experimental part: as §1, §2, §3
A further data set is described as follows: Acute toxicity. The note with it: mouse, in vivo. As for the experimental part: The compound A was intraveneously (iv) or orally (po) administered to a group of male mice once. After 10 days, the LD50 values were determined by the Litchfield-Wilcoxon method.
The subject of data set [16] is Micrococcus luteus IFO 12708. The experiment in a line: microbe, parasite or virus in culture. As to conditions: IFO12708.
[17] abbreviates: inoculum 10^6 cells/ml, read-out: MIC.
Where [18] appears, read: inoculum 10^6 cells/ml, 10% horse blood-added medium, read-out: MIC.

In the case of `CNCC1CN(c2c(F)cc3c(=O)c(C(=O)O)cn(C4CC4)c3c2F)CCO1` (stereo not drawn) [Compound A, 1-cyclopropyl-6,8-difluoro-1,4,-dihydro-7-[2-(methylaminomethyl)morpholino]-4-oxoquinoline-3-carboxylic acid], the MIC in the data set on Shigella sonnei EW-33 turned out to be 0.025 µg/mL (≈ 0.0636 µM); in data set [1] (ATCC12228) it was 0.05 µg/mL (≈ 0.127 µM); in [2] (NIHJJC2) it was 0.1 µg/mL (≈ 0.254 µM); in data set [3], 0.1 µg/mL (≈ 0.254 µM); in data set [4], 0.1 µg/mL (≈ 0.254 µM); in [5], 1.56 µg/mL (≈ 3.97 µM). For the same molecule, the MIC in data set [6] (PCT219, inoculum 10^6 cells/ml, read-out: MIC) amounted to 0.012 µg/mL (≈ 0.0305 µM); in data set [7] (IFO3988), 0.78 µg/mL (≈ 1.98 µM); in data set [8], 0.025 µg/mL (≈ 0.0636 µM); in data set [9], 1.56 µg/mL (≈ 3.97 µM); in [10], 0.025 µg/mL (≈ 0.0636 µM); in data set [11], 1.56 µg/mL (≈ 3.97 µM). Moreover, the MIC in [12] (IFO12648) amounted to 0.78 µg/mL (≈ 1.98 µM); in data set [13], 0.2 µg/mL (≈ 0.508 µM); in data set [14], 1.56 µg/mL (≈ 3.97 µM); in [15], 0.025 µg/mL (≈ 0.0636 µM); in data set [16] it was 0.39 µg/mL (≈ 0.991 µM). The median lethal dose (LD50) at 240 h was 210 mg/kg in the data set “Acute toxicity” (iv) and more than 3000 mg/kg in “Acute toxicity” (po).
Take `CC1COc2c(N3CCN(C)CC3)c(F)cc3c(=O)c(C(=O)O)cn1c23` (stereo not drawn) [OFLX, 9-fluoro-3-methyl-10-(4-methyl-1-piperazinyl)-7-oxo-2,3-dihydro-7H-pyrido[1,2,3-de][1,4]-benzoxazine-6-carboxylic acid]: the MIC against Shigella sonnei EW-33 was determined as 0.025 µg/mL (≈ 0.0692 µM); in data set [1] (ATCC12228, inoculum 10^6 cells/ml, 10% horse blood-added medium, read-out: MIC), 0.2 µg/mL (≈ 0.553 µM); in data set [2] (NIHJJC2, inoculum 10^6 cells/ml, read-out: MIC), 0.1 µg/mL (≈ 0.277 µM); in data set [3], 0.05 µg/mL (≈ 0.138 µM); in [4] (setting [17]), 1.56 µg/mL (≈ 4.32 µM); in [5], 0.39 µg/mL (≈ 1.08 µM). The MIC in data set [6] (PCT219) was 0.05 µg/mL (≈ 0.138 µM); in [7] (IFO3988, inoculum 10^6 cells/ml, read-out: MIC), 0.1 µg/mL (≈ 0.277 µM); in data set [8] (setting [18]) it was 0.2 µg/mL (≈ 0.553 µM); in [9], 3.13 µg/mL (≈ 8.66 µM); in [10] (setting [17]), 0.2 µg/mL (≈ 0.553 µM); in data set [11] it was 6.25 µg/mL (≈ 17.3 µM). In addition, the MIC in data set [12] (IFO12648, inoculum 10^6 cells/ml, read-out: MIC) was 0.2 µg/mL (≈ 0.553 µM); in [13], 0.05 µg/mL (≈ 0.138 µM); in [14], 0.1 µg/mL (≈ 0.277 µM); in [15] (setting [18]) it was 0.2 µg/mL (≈ 0.553 µM); in data set [16], 3.13 µg/mL (≈ 8.66 µM).
